Data on three compounds can be found in PMC7297664 (2020).

In assay [1] the test system is RNA 11 (8-oxoG at G26) (RNA, aptamer, 7,8-dihydro-8-oxoguanosine at 26) GGCGAUACCAGCCGAAAGGCCCUUGGCAGCGUC
Kind of assay: MST binding check. The note with it: Na+ 150 mM (NaCl), 10 nM RNA.

Assay [2] concerns RNA 9 (canonical theophylline aptamer, Cy5) (RNA, aptamer) GGCGAUACCAGCCGAAAGGCCCUUGGCAGCGUC
Briefly: MST binding check. The settings on record: Na+ 150 mM (NaCl), 10 nM RNA.

For assay [3], the system named is RNA 10 (8-oxoG at G25) (RNA, aptamer, 7,8-dihydro-8-oxoguanosine at 25) GGCGAUACCAGCCGAAAGGCCCUUGGCAGCGUC
Kind of assay: microscale thermophoresis (MST). The settings on record: Na+ 150 mM (NaCl); TBS pH 7.5, up to 5% DMSO; up to 1 mM; incomplete curve, solubility; abstract gives ≈160 μM.

Assay [4] has as its system RNA 12 (8-oxoG at G11) (RNA, aptamer, 7,8-dihydro-8-oxoguanosine at 11) GGCGAUACCAGCCGAAAGGCCCUUGGCAGCGUC
Briefly: MST binding check. The settings on record: Na+ 150 mM (NaCl), 10 nM RNA.

Assay [5] relates to RNA 1 (canonical theophylline aptamer) (RNA, aptamer) GGCGAUACCAGCCGAAAGGCCCUUGGCAGCGUC
Briefly: ITC. The settings on record: conditions as previously reported (cited).

The subject of assay [6] is RNA 10 (8-oxoG at G25) (RNA, aptamer, 7,8-dihydro-8-oxoguanosine at 25) GGCGAUACCAGCCGAAAGGCCCUUGGCAGCGUC
Briefly: MST binding check. The note with it: Na+ 150 mM (NaCl); TBS: 50 mM Tris-HCl pH 7.5; 10 nM RNA; up to 11.25 mM.

For assay [7], the system named is RNA 9 (canonical theophylline aptamer, Cy5) (RNA, aptamer) GGCGAUACCAGCCGAAAGGCCCUUGGCAGCGUC
Kind of assay: microscale thermophoresis (MST). The note with it: Na+ 150 mM (NaCl); TBS: 50 mM Tris-HCl pH 7.5; 10 nM RNA; incubated in ice.

The mark [8] stands for this setting: TBS pH 7.5, up to 5% DMSO, up to 1 mM.
Where [9] appears, read: TBS: 50 mM Tris-HCl pH 7.5, up to 11.25 mM.

With `Cn1cnc2c1c(=O)[nH]c(=O)n2C`, the binding result in assay [1] (setting [8]), in assay [2] (setting [8]) and in assay [4] (setting [8]) was “no” each time. The compound also had a dissociation constant Kd in assay [3] of more than 160 µM.

`Cn1c(=O)c2c(ncn2C)n(C)c1=O`: the binding entry in assay [1] (setting [9]), in assay [2] (setting [9]), in assay [5] (printed Kd = NA), in assay [6] and in assay [4] (setting [9]) was “no” in each case.

Consider `Cn1c(=O)c2[nH]cnc2n(C)c1=O`, for which the Kd in assay [5] (mean of two runs, 0.72 and 1.98 μM) worked out at 1.35 µM; in assay [7], 29 ± 35 µM. Besides, the binding result in assay [4] (setting [9]) is “no”.
